Experimental data published in patent publication US20070009544A1, “Anti-allergic complex molecules” (priority 1999, published 2007).
≈ marks a conversion by molar mass, not a printed value. Entries after “also recorded” stand apart in the source; their conditions may differ. Read-outs that look alike come from different tables or passages of the source. Numbered stars: 1 amine (or outer) side, 2 acyl side, 3 side chain; on linkers, the order of the positions; unused ones are H or OH. Bridge positions count the residues as written; N and C are the ends. Square brackets hold non-standard residues; d marks the D form. Ends that are not written are not given here. Peptide text beside a SMILES is read from it. Phe(4-NH2) = Nc1ccc(C[C@H](N)C(=O)O)cc1; Suc = O=C(CCC(=O)[*:2])[*:1]

Columns and labels:
[1] = tested on: purified rat peritoneal mast cells; assay type: cell-based; details: for Inhibitor (degree of inhibition of histamine secretion from mast cells): Table 1, incubation with different concentrations of each peptide, then induction of the allergic reaction
Outline: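 Intact purified rat peritoneal mast cells were incubated at 37° C with increasing peptide concentrations, then stimulated with 5 μg/ml compound 48/80 (maximal release). Histamine secretion is expressed as % of total cellular histamine after subtracting spontaneous release, as the mean of duplicates.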

[2] = Peptide solubility (remarks; assay medium, Tyrode buffer); assay type: physicochemical
[3] = tested on: purified rat peritoneal mast cells; assay: Histamine secretion from intact mast cells incubated with peptide alone (secretagogue side effect); details: for Secretagogue (histamine secretion following incubation of mast cell with different concentrations of each peptide): no allergen; for histamine secretion from mast cells on incubation with increasing concentrations of peptide alone: no additional allergen
[4] = tested on: abdominal skin of C.R rats; assay: Rat skin test: intradermal injection of peptide, then intradermal compound 48/80 or vehicle, wheal area; assay type: in vivo; details: for Mean Wheal Area ± STD, Vehicle: vehicle instead of compound 48/80
Outline: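 Peptide was injected intradermally (20 μl, in 10% DMSO/saline) at 20 or 200 μg; after 0.5 or 1 h, 20 μl compound 48/80 (0.1 mg/ml) or vehicle was injected intradermally at the same site. Wheal outlines were traced and areas measured by planimeter, reported as mean wheal area.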

[5] = tested on: rat peritoneal mast cells; assay: Inhibition of IgE dependent (DNP-specific IgE / DNP-BSA) histamine secretion; assay type: cell-based
Procedure: Peptides 2 and 2-Suc were also tested in vitro for their ability to block histamine secretion from rat peritoneal mast cells, in response to the IgE-dependent mechanism. The IgE dependent pathway is activated in response to an immunological trigger, brought about by aggregation of the high affinity receptors (FeεRI) for IgE, which are present on the cell surface of mast cells. This response involves crosslinking of cell bound IgE antibodies by the corresponding antigens (allergens).
Isolated, purified mast cells were sensitized in the presence of a monoclonal DNP-specific IgE antibody (1 μg/10^6 cells) for 1 hour at 37° C. The cells were washed 3 times and incubated for 2 hours with different concentrations of each peptide, followed by triggering with the antigen DNP-BSA (100 ng/ml) in the presence of Brain Extract (0.1 mg/ml), for 20 min. at 37° C. Placing the tubes in ice terminated the reaction. The amount of histamine released from the cells was monitored.

[6] = tested on: purified rat peritoneal mast cells
[7] = intradermal peptide 1 mg/ml, 0.5 hour before allergic induction
[8] = intradermal peptide 1 mg/ml, 0.5 hour before
[9] = intradermal peptide 1 mg/ml, 1 hour before allergic induction
[10] = intradermal peptide 1 mg/ml, 1 hour before
[11] = intradermal peptide 10 mg/ml, 0.5 hour before allergic induction
[12] = intradermal peptide 10 mg/ml, 0.5 hour before
[13] = intradermal peptide 10 mg/ml, 1 hour before allergic induction
[14] = intradermal peptide 10 mg/ml, 1 hour before
[15] = intradermal peptide 0.5 hour before allergic induction
[16] = intradermal peptide, lower dose or 1 hour before allergic induction

Row | Molecule | Inhibitor (degree of inhibition of histamine secretion from mast cells) [1] | solubility [2] | block of compound 48/80 induced allergic reaction in vivo, rat skin ([4]; intradermal peptide) | Mean Wheal Area ± STD, Compound 48/80 [4, 7] | Mean Wheal Area ± STD, Vehicle [4, 8] | Mean Wheal Area ± STD, Compound 48/80 [4, 9] | Mean Wheal Area ± STD, Vehicle [4, 10] | Mean Wheal Area ± STD, Compound 48/80 [4, 11] | Mean Wheal Area ± STD, Vehicle [4, 12] | Mean Wheal Area ± STD, Compound 48/80 [4, 13] | Mean Wheal Area ± STD, Vehicle [4, 14] | reduction of compound 48/80 induced allergic reaction [4, 15] | reduction of compound 48/80 induced allergic reaction [4, 16] | histamine secretion from mast cells on incubation with increasing concentrations of peptide alone [3] | Secretagogue (histamine secretion following incubation of mast cell with different concentrations of each peptide) ([3]; Table 9, peptide alone) | other results
1 | CC(C)C[C@@H]1NC(=O)CNC(=O)[C@H](CS)NC(=O)[C@H](CCC(=O)O)NC(=O)[C@H](CCCCN)NC(=O)[C@H](CC(C)C)NC(=O)[C@H](CC(N)=O)NC(=O)[C@H](CC(N)=O)NC(=O)[C@@H](NC(=O)[C@@H]2CCCN2C(=O)[C@H](C)NC(=O)[C@H](CC(C)C)NC(=O)[C@H](CC(C)C)NC(=O)[C@H](C)NC(=O)[C@H](CC(C)C)NC(=O)[C@H](CC(C)C)NC(=O)[C@@H](NC(=O)[C@H](C)NC(=O)[C@@H]2CCCN2C(=O)[C@H](CC(C)C)NC(=O)[C@H](CC(C)C)NC(=O)[C@H](C)NC(=O)[C@@H](NC(=O)[C@H](C)NC(=O)[C@H](C)N)C(C)C)C(C)C)CCCCNC(=O)[C@H](Cc2ccc(O)cc2)NC1=O [Peptide 2-Cyc] (H-AAVALLPAVLLALLAPKNNLKECGLY; lactam 17-C; N-terminus assumed) | + (+ Poor inhibitor (<50% inhibition)) | very poor solubility | less effective than peptide 2 | 104.4 ± 45.8 (n = 5) mm^2 | 61.4 ± 30.9 (n = 5) mm^2 | 84.5 ± 29.7 (n = 6) mm^2 | 54.6 ± 12.1 (n = 6) mm^2 | 82.6 ± 50.6 (n = 5) mm^2 | 58.8 ± 29.6 (n = 5) mm^2 | 75.3 ± 28.4. (n = 6) mm^2 | 45.0 ± 7.9 (n = 6) mm^2 | significant decrease in wheal area | had no effect |  |  | effect on compound 48/80 induced histamine secretion ([1]; range of peptide concentrations tested): only limited potential to block compound 48/80 induced histamine secretion; side effects of histamine secretion in mast cells, peptide alone ([3]; at a concentration of 100 μg/ml): only minor side effects of histamine secretion
2 | CC(C)C[C@H](NC(=O)CNC(=O)[C@H](CS)NC(=O)[C@H](CCC(=O)O)NC(=O)[C@H](CCCCN)NC(=O)[C@H](CC(C)C)NC(=O)[C@H](CC(N)=O)NC(=O)[C@H](CC(N)=O)NC(=O)[C@H](CCCCN)NC(=O)[C@@H]1CCCN1C(=O)[C@H](C)NC(=O)[C@H](CC(C)C)NC(=O)[C@H](CC(C)C)NC(=O)[C@H](C)NC(=O)[C@H](CC(C)C)NC(=O)[C@H](CC(C)C)NC(=O)[C@@H](NC(=O)[C@H](C)NC(=O)[C@@H]1CCCN1C(=O)[C@H](CC(C)C)NC(=O)[C@H](CC(C)C)NC(=O)[C@H](C)NC(=O)[C@@H](NC(=O)[C@H](C)NC(=O)[C@H](C)NC(=O)CCC(=O)O)C(C)C)C(C)C)C(=O)N[C@@H](Cc1ccc(O)cc1)C(=O)O [Peptide 2-Suc] (Suc-AAVALLPAVLLALLAPKNNLKECGLY-OH; C-terminus assumed) | +++ (+++ Potent inhibitor (>85% inhibition)) | more soluble in the assay medium, as compared to peptide 2 | less effective than peptide 2 | 93.4 ± 32.0 (n = 11) mm^2 | 56.8 ± 24.1 (n = 11) mm^2 | 89.3 ± 30.1 (n = 12) mm^2 | 57.7 ± 23.2 (n = 12) mm^2 | 73.8 ± 28.7 (n = 10) mm^2 | 57.2 ± 21.7 (n = 10) mm^2 | 78.1 ± 28.3 (n = 12) mm^2 | 54.3 ± 25.8 (n = 12) mm^2 | significantly reduced the wheal | had no effect | did not induce histamine secretion; also recorded: no stimulatory effect |  | IC50, compound 48/80 induced histamine secretion [1]: 200 µg/mL (≈ 72 µM); maximal inhibition of compound 48/80 induced histamine secretion ([1]; 600 μg/ml peptide, compound 48/80 concentration not given): 80%; Secretagogue (histamine secretion following incubation of mast cell with different concentrations of each peptide) ([3]; Table 1, peptide alone): −; inhibition of IgE induced histamine secretion ([5]; 600 μg/ml peptide, DNP-BSA 100 ng/ml): 90%; block of histamine secretion activated by an immunological trigger ([5]; DNP-specific IgE, DNP-BSA): effectively block histamine secretion
3 | CC(C)C[C@H](NC(=O)CNC(=O)[C@H](CS)NC(=O)[C@H](CCC(=O)O)NC(=O)[C@H](CCCCN)NC(=O)[C@H](CC(C)C)NC(=O)[C@H](CC(N)=O)NC(=O)[C@H](CC(N)=O)NC(=O)[C@H](CCCCN)NC(=O)[C@@H]1CCCN1C(=O)[C@H](C)NC(=O)[C@H](CC(C)C)NC(=O)[C@H](CC(C)C)NC(=O)[C@H](C)NC(=O)[C@H](CC(C)C)NC(=O)[C@H](CC(C)C)NC(=O)[C@@H](NC(=O)[C@H](C)NC(=O)[C@@H]1CCCN1C(=O)[C@H](CC(C)C)NC(=O)[C@H](CC(C)C)NC(=O)[C@H](C)NC(=O)[C@@H](NC(=O)[C@H](C)NC(=O)[C@H](C)N)C(C)C)C(C)C)C(=O)N[C@@H](Cc1ccc(N)cc1)C(=O)O [WALL005] (H-AAVALLPAVLLALLAPKNNLKECGL[Phe(4-NH2)]-OH; N-terminus and C-terminus assumed) |  | severe solubility problems |  |  |  |  |  |  |  |  |  |  |  | resulted in histamine secretion | + | 
4 | VTVLALGALAGVGVGKNNLKECGLY [Peptide 1] |  | no solubility problems |  |  |  |  |  |  |  |  |  |  |  | resulted in histamine secretion | + | stimulatory effect on histamine secretion ([3]; peptide alone, concentration range of up to 400 p.g/ml (FIG. 1A)): hardly any stimulatory effect
5 | VTVLALGALAGVGVGPKNNLKECGLY [WALL010] |  |  |  |  |  |  |  |  |  |  |  |  |  |  |  | maximal inhibition of compound 48/80 induced histamine release ([1]; 200 μg/ml peptide): 16.7%; Secretagogue (histamine secretion following incubation of mast cell with different concentrations of each peptide) [6]: +; histamine secretion from mast cells on incubation with increasing concentrations of peptide alone [6]: resulted in histamine secretion
